Among the data in patent publication EP1984353B1, “AURORA KINASE MODULATORS AND METHOD OF USE” (Amgen, Inc, priority 2006, dated 2007) are IC50 values, retold here.

In one assay the target is T1, AuroraA-TPX2 (Homo sapiens, UniProt O14965).
T1 construct: 20 µL of AuroraA-TPX2 KD GST; GST
T1 sequence (O14965 133-383 limits assumed): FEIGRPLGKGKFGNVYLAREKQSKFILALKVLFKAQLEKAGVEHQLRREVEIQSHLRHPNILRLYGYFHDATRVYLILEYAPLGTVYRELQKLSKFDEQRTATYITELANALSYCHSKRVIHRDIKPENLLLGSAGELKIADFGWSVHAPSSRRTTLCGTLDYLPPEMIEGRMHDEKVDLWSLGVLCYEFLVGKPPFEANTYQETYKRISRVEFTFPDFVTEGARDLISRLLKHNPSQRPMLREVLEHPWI
T1 sequence (Q9ULW0 1-43 partner limits assumed): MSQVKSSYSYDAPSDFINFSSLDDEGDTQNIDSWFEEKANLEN
The experiment in a line: AuroraA-TPX2 Homogeneous Time Resolved Fluorescent (HTRF) kinase assay. It counts as biochemical. An outline of the steps: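 HTRF read-out: europium anti-phosphoPLK antibody (0.02 nM) plus streptavidin-APC detect phosphorylated biotin-PLK after EDTA stop and overnight equilibration. Kinase step runs about 120 min with Aurora-A/TPX2, ATP and roughly 1 µM PLK peptide at pH 7.5 HEPES buffer with Mg2+ and DTT.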
(In TR-FRET formats the signal depends on donor and acceptor labels being close together.)

The target of a further assay is T2, AuroraB (Homo sapiens, UniProt Q96GD4).
T2 construct: 20 µL of AuroraB FL His; His
Description: AuroraB Homogeneous Time Resolved Fluorescent (HTRF) kinase assay. It counts as biochemical. The procedure, abridged: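 HTRF read-out: after EDTA stop and ~60 min with europium anti-phospho-H3 antibody and streptavidin-APC, 655/615 nm ratio reports phosphorylation. Reaction: 400 pM AuroraB FL His, 23 µM ATP (at Km(app)), 0.1 µM biotin-Histone H3 peptide, 50 mM HEPES pH 7.5, MgCl/MnCl, ~90 min.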

Where [1] appears, read: average, given as class symbols, read-out: AurA/TP X2_ IC50_IP (Avg).
The mark [2] stands for this setting: average, given as class symbols, read-out: AurB_ _IC50_IP (Avg).
Setting [3] is: average, given as numbers, unit inferred, read-out: AurA/TP X2_ IC50_IP (Avg).
Where [4] appears, read: average, given as numbers, unit inferred, read-out: AurB_ _IC50_IP (Avg).

Read-outs that look alike come from different tables or passages of the source.

T2 sequence (Q96GD4 whole entry): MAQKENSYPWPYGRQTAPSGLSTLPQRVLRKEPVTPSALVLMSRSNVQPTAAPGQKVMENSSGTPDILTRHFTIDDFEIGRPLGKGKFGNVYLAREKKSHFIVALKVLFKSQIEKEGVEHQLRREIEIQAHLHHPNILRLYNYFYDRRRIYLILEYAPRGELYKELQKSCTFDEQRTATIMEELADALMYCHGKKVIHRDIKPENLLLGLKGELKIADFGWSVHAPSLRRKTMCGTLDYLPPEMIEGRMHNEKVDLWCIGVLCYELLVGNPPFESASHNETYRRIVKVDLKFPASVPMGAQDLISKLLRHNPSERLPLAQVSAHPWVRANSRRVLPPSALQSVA

`Nc1nccc(-c2cccnc2Oc2ccc(Nc3nnc(N4CCC(O)CC4)c4ccccc34)cc2)n1` [compound 358, 1-(4-((4-((3-(2-amino-4-pyrimidinyl)-2-pyridinyl)oxy)phenyl)amino)-1-phthalazinyl)-4-piperidinol]: the IC50 is 500 to 2500 nM on AuroraA-TPX2 (setting [1]) and at most 100 nM at AuroraB (setting [2]).
For `c1ccc(-c2nnc(Nc3ccc(Oc4ncccc4-c4ccnc(NCCCN5CCC5)n4)cc3)c3ccccc23)cc1` [compound 295, N-(4-((3-(2-((3-(1-azetidinyl)propyl)amino)-4-pyrimidinyl)-2-pyridinyl)oxy)phenyl)-4-phenyl-1-phthalazinamine] the same measures were 100 to 500 nM and at most 100 nM.
For `CNc1cc(-c2cccnc2Nc2ccc(Nc3nnc(-c4ccccc4)c4ccccc34)cc2)ncn1` [compound 255, N-(3-(6-(methylamino)-4-pyrimidinyl)-2-pyridinyl)-N'-(4-phenyl-1-phthalazinyl)-1,4-benzenediamine] the same measures were 100 to 500 nM and at most 100 nM.
Taken in the same sequence, the figures for `c1ccc(-c2nnc(Nc3ccc(Oc4ncccc4-c4ccnc(NCCCN5CCNCC5)n4)nc3)c3ccccc23)cc1` [compound 390, 4-phenyl-N-(6-((3-(2-((3-(1-piperazinyl)propyl)amino)-4-pyrimidinyl)-2-pyridinyl)oxy)-3-pyridinyl)-1-phthalazinamine] were at most 100 nM and at most 100 nM.
For `C[C@@H]1CN(c2nnc(Nc3ccc(Oc4ncccc4-c4ccnc(N)n4)cc3)c3ccccc23)CCN1` [compound 399, N-(4-((3-(2-amino-4-pyrimidinyl)-2-pyridinyl)oxy)phenyl)-4-((3R)-3-methyl-1-piperazinyl)-1-phthalazinamine], the results for the IC50 at AuroraA-TPX2 (setting [1]) and at AuroraB (setting [2]) were 500 to 2500 nM and 100 to 500 nM, respectively.
On to `Cc1ccnn1-c1nnc(Nc2ccc(Oc3ncccc3-c3ccnc(N)n3)cc2)c2ccccc12` [compound 407, N-(4-((3-(2-amino-4-pyrimidinyl)-2-pyridinyl)oxy)phenyl)-4-(5-methyl-1H-pyrazol-1-yl)-1-phthalazinamine], for which the IC50 on AuroraA-TPX2 (setting [1]) and at AuroraB (setting [2]) was at most 100 nM throughout.
Consider `Nc1nccc(-c2cccnc2Oc2ccc(Nc3nnc(C4CCCCC4)c4ccccc34)cc2)n1` [compound 272, N-(4-((3-(2-amino-4-pyrimidinyl)-2-pyridinyl)oxy)phenyl)-4-cyclohexyl-1-phthalazinamine], for which the IC50 amounted to 19.7 nM at AuroraA-TPX2 (setting [3]) and 5.5 nM at AuroraB (setting [4]).
As for `ONc1nccc(-c2cccnc2Oc2ccc(Nc3nnc(-c4ccccc4)c4ccccc34)cc2)n1` [compound 310, N-(4-((3-(2-(hydroxyamino)-4-pyrimidinyl)-2-pyridinyl)oxy)phenyl)-4-phenyl-1-phthalazinamine], the IC50 at AuroraA-TPX2 (setting [1]) and on AuroraB (setting [2]) was at most 100 nM each time.
As to `C[C@@H](O)c1cccc(-c2nnc(Nc3ccc(Oc4ncccc4-c4ccnc(N)n4)cc3)c3ccccc23)c1` [compound 361, (1R)-1-(3-(4-((4-((3-(2-amino-4-pyrimidinyl)-2-pyridinyl)oxy)phenyl)amino)-1-phthalazinyl)phenyl)ethanol], the IC50 on AuroraA-TPX2 (setting [1]) and on AuroraB (setting [2]) was at most 100 nM in each case.
On to `Nc1nccc(-c2cccnc2Oc2ccc(Nc3nnc(-c4ccccc4)c4ccsc34)cn2)n1` [compound 313, N-(6-((3-(2-amino-4-pyrimidinyl)-2-pyridinyl)oxy)-3-pyridinyl)-4-phenylthieno[2,3-d]pyridazin-7-amine], for which the IC50 on AuroraA-TPX2 (setting [1]) and at AuroraB (setting [2]) was at most 100 nM each time.
With `Nc1nccc(-c2cccnc2Oc2ccc(Nc3nnc(-c4cccc(OP(=O)(O)O)c4)c4ccccc34)cc2)n1` [compound 366, 3-(4-((4-((3-(2-amino-4-pyrimidinyl)-2-pyridinyl)oxy)phenyl)amino)-1-phthalazinyl)phenyl dihydrogen phosphate], the IC50 at AuroraA-TPX2 (setting [1]) and at AuroraB (setting [2]) was 100 to 500 nM in each case.
In the case of `OCCCNc1nccc(-c2cccnc2Oc2ccc(Nc3nnc(-c4ccccc4)c4ccccc34)cn2)n1` [compound 367, 3-((4-(2-((5-((4-phenyl-1-phthalazinyl)amino)-2-pyridinyl)oxy)-3-pyridinyl)-2-pyrimidinyl)amino)-1-propanol], the IC50 at AuroraA-TPX2 (setting [1]) and at AuroraB (setting [2]) was at most 100 nM in each case.
As to `Nc1nccc(-c2cccnc2Oc2ccc(Nc3nnc(-c4cc(O)ccc4F)c4ccccc34)cc2)n1` [compound 373, 3-(4-((4-((3-(2-amino-4-pyrimidinyl)-2-pyridinyl)oxy)phenyl)amino)-1-phthalazinyl)-4-fluorophenol], the IC50 on AuroraA-TPX2 (setting [1]) and on AuroraB (setting [2]) was at most 100 nM in each case.
With `Nc1ncc(F)c(-c2cccnc2Oc2ccc(Nc3nnc(-c4ccccc4)c4ccccc34)cc2)n1` [Example 469, N-(4-(3-(2-Amino-5-fluoropyrimidin-4-yl)pyridin-2-yloxy)phenyl)-4-phenylphthalazin-1-amine], the IC50 at AuroraA-TPX2 (read-out: average activity in the Aurora kinase A HTRF assay) and on AuroraB (read-out: average activity in the Aurora kinase B HTRF assay) was at most 100 nM each time.
Regarding `COc1cccc(-c2nnc(Nc3ccc(Oc4ncccc4-c4ccnc(NCCCN5CCCCC5)n4)cc3)c3ccccc23)n1` [compound 454, 4-(6-(methyloxy)-2-pyridinyl)-N-(4-((3-(2-((3-(1-piperidinyl)propyl)amino)-4-pyrimidinyl)-2-pyridinyl)oxy)phenyl)-1-phthalazinamine], the IC50 at AuroraA-TPX2 (setting [1]) and on AuroraB (setting [2]) was at most 100 nM in each case.
On to `Nc1nccc(-c2cccnc2Oc2ccc(Nc3nnc(-c4cc(F)ccc4O)c4ccccc34)cn2)n1` [compound 387, 2-(4-((6-((3-(2-amino-4-pyrimidinyl)-2-pyridinyl)oxy)-3-pyridinyl)amino)-1-phthalazinyl)-4-fluorophenol], for which the IC50 at AuroraA-TPX2 (setting [1]) and on AuroraB (setting [2]) was at most 100 nM each time.
Consider `Nc1nccc(-c2cccnc2Oc2ccc(Nc3nnc(N4CCCC(O)C4)c4ccccc34)cc2)n1` (centres unmarked) [compound 354, 1-(4-((4-((3-(2-amino-4-pyrimidinyl)-2-pyridinyl)oxy)phenyl)amino)-1-phthalazinyl)-3-piperidinol], for which the values for the IC50 on AuroraA-TPX2 (setting [3]) and at AuroraB (setting [4]) were 87.4 nM and 25.9 nM, respectively.
With `COc1cccc(-c2nnc(Nc3ccc(Oc4ncccc4-c4ccnc(N)n4)nc3)c3ccccc23)n1` [compound 293, N-(6-((3-(2-amino-4-pyrimidinyl)-2-pyridinyl)oxy)-3-pyridinyl)-4-(6-(methyloxy)-2-pyridinyl)-1-phthalazinamine], the IC50 at AuroraA-TPX2 (setting [1]) and on AuroraB (setting [2]) was at most 100 nM each time.
As to `CN1CCN(CCCNc2ncc(F)c(-c3cccnc3Oc3ccc(Nc4nnc(-c5ccccc5)c5ccccc45)cc3)n2)CC1` [compound 291, N-(4-((3-(5-fluoro-2-((3-(4-methyl-1-piperazinyl)propyl)amino)-4-pyrimidinyl)-2-pyridinyl)oxy)phenyl)-4-phenyl-1-phthalazinamine], the IC50 was 15.7 nM at AuroraA-TPX2 (setting [3]) and 3 nM at AuroraB (setting [4]).
As to `CN(C)C1CCN(CCCNc2nccc(-c3cccnc3Oc3ccc(Nc4nnc(-c5ccccc5)c5ccccc45)cc3)n2)C1` (centres unmarked) [compound 324, N-(4-((3-(2-((3-(3-(dimethylamino)-1-pyrrolidinyl)propyl)amino)-4-pyrimidinyl)-2-pyridinyl)oxy)phenyl)-4-phenyl-1-phthalazinamine], the IC50 at AuroraA-TPX2 (setting [1]) and on AuroraB (setting [2]) was at most 100 nM in each case.
`CC(C)(O)c1cccc(-c2nnc(Nc3ccc(Oc4ncccc4-c4ccnc(N)n4)cc3)c3ccccc23)c1` [compound 357, 2-(3-(4-((4-((3-(2-amino-4-pyrimidinyl)-2-pyridinyl)oxy)phenyl)amino)-1-phthalazinyl)phenyl)-2-propanol]: the IC50 on AuroraA-TPX2 (setting [1]) and on AuroraB (setting [2]) was at most 100 nM in each case.
`Nc1nccc(-c2cccnc2Oc2ccc(Nc3nnc(-c4ccccc4OC(F)(F)F)c4ccccc34)cc2)n1` [compound 382, N-(4-((3-(2-amino-4-pyrimidinyl)-2-pyridinyl)oxy)phenyl)-4-(2-((trifluoromethyl)oxy)phenyl)-1-phthalazinamine]: the IC50 on AuroraA-TPX2 (setting [1]) was 100 to 500 nM; on AuroraB (setting [2]), at most 100 nM.
For `Nc1nccc(-c2cccnc2Oc2ccc(Nc3nnc(-c4cc(O)ccc4F)c4ccccc34)cn2)n1` [compound 379, 3-(4-((6-((3-(2-amino-4-pyrimidinyl)-2-pyridinyl)oxy)-3-pyridinyl)amino)-1-phthalazinyl)-4-fluorophenol] the same measures were at most 100 nM and at most 100 nM.
On to `Cc1ccn(-c2nnc(Nc3ccc(Oc4ncccc4-c4ccnc(N)n4)cc3)c3ccccc23)n1` [compound 408, N-(4-((3-(2-amino-4-pyrimidinyl)-2-pyridinyl)oxy)phenyl)-4-(3-methyl-1H-pyrazol-1-yl)-1-phthalazinamine], for which the IC50 at AuroraA-TPX2 (setting [1]) and at AuroraB (setting [2]) was at most 100 nM in each case.
For the molecule `Cc1cccc(-c2nnc(Nc3ccc(Oc4ncccc4-c4ccnc(N)n4)nc3)c3ccccc23)n1` [compound 270, N-(6-((3-(2-amino-4-pyrimidinyl)-2-pyridinyl)oxy)-3-pyridinyl)-4-(6-methyl-2-pyridinyl)-1-phthalazinamine], the IC50 on AuroraA-TPX2 (setting [1]) and at AuroraB (setting [2]) was at most 100 nM in each case.
